Laboratory results from patent publication US6737383B1, “Herbicidal oxadiazolidines” (priority 1999, dated 2004).

What was measured:
cocklebur = assay: Test B pre/postemergence cocklebur; type: in vivo, Xanthium strumarium
Summary of the method: (§1)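 Test chemicals in a non-phytotoxic solvent mixture with surfactant were sprayed preemergence onto planted seeds and postemergence onto plants 2 to 18 cm tall (1- to 4-leaf stage). After twelve to sixteen days in a greenhouse, injury was visually rated against untreated controls from 0 (no effect) to 10 (complete control).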

morningglory = assay: Test B pre/postemergence morningglory; type: in vivo, Ipomoea hederacea
Summary of the method: as §1

sugar beet = assay: Test B pre/postemergence sugar beet; type: in vivo, Beta vulgaris
Summary of the method: as §1

corn = assay: Test B pre/postemergence corn; type: in vivo, Zea mays
Summary of the method: as §1

surinam grass = assay: Test B pre/postemergence surinam grass; type: in vivo, Brachiaria decumbens
Summary of the method: as §1

purple nutsedge = assay: Test B pre/postemergence purple nutsedge; type: in vivo, Cyperus rotundus
Summary of the method: as §1

wild oat = assay: Test B pre/postemergence wild oat; type: in vivo, Avena fatua
Summary of the method: as §1

crabgrass = assay: Test B pre/postemergence crabgrass; type: in vivo, Digitaria sanguinalis
Summary of the method: as §1

soybean = assay: Test B pre/postemergence soybean; type: in vivo, Glycine max
Summary of the method: as §1

pigweed = assay: Test B pre/postemergence pigweed; type: in vivo, Amaranthus retroflexus
Summary of the method: as §1

rape = assay: Test B pre/postemergence rape; type: in vivo, Brassica napus
Summary of the method: as §1

bedstraw = assay: Test B pre/postemergence bedstraw; type: in vivo, Galium aparine
Summary of the method: as §1

blackgrass = assay: Test B pre/postemergence blackgrass; type: in vivo, Alopecurus myosuroides
Summary of the method: as §1

velvetleaf = assay: Test B pre/postemergence velvetleaf; type: in vivo, Abutilon theophrasti
Summary of the method: as §1

giant foxtail = assay: Test B pre/postemergence giant foxtail; type: in vivo, Setaria faberii
Summary of the method: as §1

wheat = assay: Test B pre/postemergence wheat; type: in vivo, Triticum aestivum
Summary of the method: as §1

[1] = Postemergence, Rate 62 g/ha, scale 0 to 10, 0 is no effect, 10 is complete control
[2] = Postemergence, Rate 125 g/ha, scale of 0 to 10 where 0 is no effect and 10 is complete control
[3] = Postemergence, Rate 250 g/ha, scale of 0 to 10, 0 is no effect, 10 is complete control
[4] = Preemergence, Rate 62 g/ha, scale of 0 to 10 where 0 is no effect and 10 is complete control
[5] = Preemergence, Rate 125 g/ha, scale of 0 to 10 where 0 is no effect and 10 is complete control
[6] = Preemergence, Rate 250 g/ha, scale 0 to 10 (0 no effect, 10 complete control)
[7] = Preemergence, Rate 500 g/ha, scale of 0 to 10 where 0 is no effect and 10 is complete control
[8] = Rate 500 g/ha, Postemergence, scale 0 to 10, 0 is no effect, 10 is complete control

## CC(C)N(C(=O)n1oc(=O)n(Cc2nnc(Cl)s2)c1=O)c1ccccc1 [Compound 654]
cocklebur; [1]
  Plant response rating, Cocklebur: 0
cocklebur; [2]
  Cocklebur plant response rating: 0
cocklebur; [3]
  Cocklebur plant response rating: 0
cocklebur; [4]
  Cocklebur plant response rating: 0
cocklebur; [5]
  Cocklebur plant response rating: 0
cocklebur; [6]
  Plant response rating, Cocklebur: 0
cocklebur; [7]
  Plant response rating, Cocklebur: 0
cocklebur; [8]
  Cocklebur plant response rating: 0
morningglory; [1]
  Plant response rating, Morningglory: 3
morningglory; [2]
  Morningglory plant response rating: 4
morningglory; [3]
  Morningglory plant response rating: 10
morningglory; [4]
  Morningglory plant response rating: 0
morningglory; [5]
  Morningglory plant response rating: 0
morningglory; [6]
  Plant response rating, Morningglory: 0
morningglory; [7]
  Plant response rating, Morningglory: 0
morningglory; [8]
  Morningglory plant response rating: 10
Sugar beet; [1]
  Plant response rating, Sugarbeets: 0
Sugar beet; [2]
  Sugarbeets plant response rating: 0
Sugar beet; [4]
  Sugarbeets plant response rating: 0
Sugar beet; [5]
  Sugarbeets plant response rating: 0
Sugar beet; [6]
  Plant response rating, Sugarbeets: 0
Sugar beet; [7]
  Plant response rating, Sugarbeets: 0
Sugar beet; [8]
  Sugarbeets plant response rating: 0
corn; [1]
  Plant response rating, Corn: 0
corn; [2]
  Corn plant response rating: 0
corn; [3]
  Corn plant response rating: 0
corn; [4]
  Corn plant response rating: 0
corn; [5]
  Corn plant response rating: 0
corn; [6]
  Plant response rating, Corn: 0
corn; [7]
  Plant response rating, Corn: 0
corn; [8]
  Corn plant response rating: 0
Surinam grass; [1]
  Plant response rating, B. signalgrass: 0
Surinam grass; [2]
  Plant response rating, B. signalgrass: 0
Surinam grass; [3]
  B. signalgrass plant response rating: 0
Surinam grass; [4]
  B. signalgrass plant response rating: 0
Surinam grass; [5]
  B. signalgrass plant response rating: 0
Surinam grass; [6]
  Plant response rating, B. signalgrass: 0
Surinam grass; [7]
  Plant response rating, B. signalgrass: 7
Surinam grass; [8]
  B. signalgrass plant response rating: 0
Purple nutsedge; [1]
  Plant response rating, Nutsedge: 0
Purple nutsedge; [2]
  Nutsedge plant response rating: 0
Purple nutsedge; [4]
  Nutsedge plant response rating: 0
Purple nutsedge; [6]
  Plant response rating, Nutsedge: 0
Purple nutsedge; [7]
  Plant response rating, Nutsedge: 0
Wild oat; [1]
  Plant response rating, Wild oats: 0
Wild oat; [2]
  Wild oats plant response rating: 0
Wild oat; [4]
  Wild oats plant response rating: 0
Wild oat; [5]
  Wild oats plant response rating: 0
Wild oat; [6]
  Plant response rating, Wild oats: 0
Wild oat; [7]
  Plant response rating, Wild oats: 2
Wild oat; [8]
  Wild oats plant response rating: 0
crabgrass; [1]
  Plant response rating, Crabgrass: 0
crabgrass; [2]
  Crabgrass plant response rating: 0
crabgrass; [3]
  Crabgrass plant response rating: 2
crabgrass; [4]
  Crabgrass plant response rating: 0
crabgrass; [5]
  Crabgrass plant response rating: 3
crabgrass; [6]
  Plant response rating, Crabgrass: 7
crabgrass; [7]
  Plant response rating, Crabgrass: 9
crabgrass; [8]
  Crabgrass plant response rating: 7
soybean; [1]
  Plant response rating, Soybean: 0
soybean; [2]
  Soybean plant response rating: 0
soybean; [4]
  Soybean plant response rating: 0
soybean; [5]
  Soybean plant response rating: 0
soybean; [6]
  Plant response rating, Soybean: 0
soybean; [7]
  Plant response rating, Soybean: 0
soybean; [8]
  Soybean plant response rating: 0
pigweed; [1]
  Plant response rating, Redroot pigweed: 0
pigweed; [2]
  Redroot pigweed plant response rating: 0
pigweed; [4]
  Redroot pigweed plant response rating: 0
pigweed; [5]
  Redroot pigweed plant response rating: 0
pigweed; [6]
  Plant response rating, Redroot pigweed: 3
pigweed; [7]
  Plant response rating, Redroot pigweed: 5
pigweed; [8]
  Redroot pigweed plant response rating: 0
rape; [1]
  Plant response rating, Rape: 0
rape; [2]
  Rape plant response rating: 0
rape; [4]
  Rape plant response rating: 0
rape; [5]
  Rape plant response rating: 0
rape; [6]
  Plant response rating, Rape: 0
rape; [7]
  Plant response rating, Rape: 0
rape; [8]
  Rape plant response rating: 0
bedstraw; [3]
  Bedstraw plant response rating: 0
bedstraw; [4]
  Bedstraw plant response rating: 0
bedstraw; [5]
  Bedstraw plant response rating: 0
bedstraw; [6]
  Plant response rating, Bedstraw: 0
bedstraw; [7]
  Plant response rating, Bedstraw: 0
bedstraw; [8]
  Bedstraw plant response rating: 0
blackgrass; [1]
  Plant response rating, Blackgrass: 0
blackgrass; [2]
  Blackgrass plant response rating: 0
blackgrass; [3]
  Blackgrass plant response rating: 0
blackgrass; [4]
  Blackgrass plant response rating: 0
blackgrass; [5]
  Blackgrass plant response rating: 0
blackgrass; [6]
  Plant response rating, Blackgrass: 2
blackgrass; [7]
  Plant response rating, Blackgrass: 7
blackgrass; [8]
  Blackgrass plant response rating: 0
velvetleaf; [1]
  Plant response rating, Velvetleaf: 0
velvetleaf; [2]
  Velvetleaf plant response rating: 0
velvetleaf; [4]
  Velvetleaf plant response rating: 0
velvetleaf; [5]
  Velvetleaf plant response rating: 0
velvetleaf; [6]
  Plant response rating, Velvetleaf: 0
velvetleaf; [7]
  Plant response rating, Velvetleaf: 0
velvetleaf; [8]
  Velvetleaf plant response rating: 0
Giant foxtail; [1]
  Plant response rating, Giant foxtail: 0
Giant foxtail; [2]
  Giant foxtail plant response rating: 2
Giant foxtail; [3]
  Giant foxtail plant response rating: 5
Giant foxtail; [4]
  Giant foxtail plant response rating: 0
Giant foxtail; [5]
  Giant foxtail plant response rating: 6
Giant foxtail; [6]
  Plant response rating, Giant foxtail: 9
Giant foxtail; [7]
  Plant response rating, Giant foxtail: 9
Giant foxtail; [8]
  Giant foxtail plant response rating: 7
wheat; [1]
  Plant response rating, Wheat: 0
wheat; [2]
  Wheat plant response rating: 0
wheat; [4]
  Wheat plant response rating: 0
wheat; [5]
  Wheat plant response rating: 0
wheat; [6]
  Plant response rating, Wheat: 0
wheat; [7]
  Plant response rating, Wheat: 0
wheat; [8]
  Wheat plant response rating: 0
